Assay results: patent US6482921B1, “Uridyl peptide antibiotic (UPA) derivatives, their synthesis and use” (Essential Therapeutics, Inc., priority 1999, dated 2002)
In brackets after ≈: the same amount, converted by molar mass.

What was measured:
Type in all cases: cell-based
[1] = test system: Pseudomonas aeruginosa PAM 1323; assay: MIC broth microdilution, P. aeruginosa PAM 1323 (medium level UPA resistance)
[2] = test system: Staphylococcus aureus 8325-4; assay: MIC broth microdilution, S. aureus 8325-4 (wild type); conditions: S. aureus 8325-4
[3] = test system: Staphylococcus aureus ATCC 29213; assay: MIC broth microdilution, S. aureus ATCC 29213 (wild type); conditions: S. aureus ATCC 29213
[4] = test system: Pseudomonas aeruginosa PAM 1154; assay: MIC broth microdilution, P. aeruginosa PAM 1154 (OprM::Hg); conditions: P. aeruginosa PAM 1154 OprM::Hg
[5] = test system: Pseudomonas aeruginosa PAM 1020; assay: MIC broth microdilution, P. aeruginosa PAM 1020 (wild type); conditions: P. aeruginosa PAM 1020
[6] = test system: Pseudomonas aeruginosa PAM 1135; assay: MIC broth microdilution, P. aeruginosa PAM 1135 (high level UPA resistance); conditions: P. aeruginosa PAM 1135 UPA1^r
Escherichia Coli MC 4100 = assay: MIC broth microdilution, E. coli MC 4100 (wild type); conditions: E. coli MC 4100
[7] = test system: Pasteurella multocida pm002; assay: MIC broth microdilution, P. multocida pm002 (wild type)
[8] = test system: Escherichia Coli MC 4100 AcrAB UPA3r; assay: MIC broth microdilution, E. coli MC 4100 AcrAB UPA3r (ΔAcrAB, UPA resistant); conditions: E. coli AcrAB UPA3^r
[9] = test system: Escherichia Coli MC 4100 AcrAB; assay: MIC broth microdilution, E. coli MC 4100 AcrAB (ΔAcrAB); conditions: E. coli AcrAB

Compound | MIC (μg/ml) Broth microdilution [1] | MIC (μg/ml) Broth microdilution [2] | MIC (μg/ml) Broth microdilution [3] | MIC (μg/ml) Broth microdilution [4] | MIC (μg/ml) Broth microdilution [5] | MIC (μg/ml) Broth microdilution [6] | MIC (μg/ml) Broth microdilution (Escherichia Coli MC 4100) | MIC (μg/ml) Broth microdilution [7] | MIC (μg/ml) Broth microdilution [8] | MIC (μg/ml) Broth microdilution [9]
CC(C(NC(=O)C(Cc1ccccc1)NC(=O)NC(Cc1c[nH]c2ccccc12)C(=O)O)C(=O)NCC1CC(O)C(n2ccc(=O)[nH]c2=O)O1)N(C)C(=O)CCCCN [Compound 123, 1-[5′-[(2S,3S)-N^3-(5-Aminopentanoyl)-N^2-[N-[[(1S)-1-carboxy-2-indol-3-ylethyl]carbamoyl]-L-phenylalanyl]-N^3-methyl-2,3-diaminobutyramido]-3′,5′-dideoxy-α-L-arabinofuranosyl]uracil] | 256 µg/mL (≈ 313 µM) | >512 µg/mL | >512 µg/mL | 16 µg/mL (≈ 19.6 µM) | 32 µg/mL (≈ 39.1 µM) | 256 µg/mL (≈ 313 µM) | 512 µg/mL (≈ 626 µM) | >512 µg/mL | 512 µg/mL (≈ 626 µM) | 4 µg/mL (≈ 4.89 µM)
CC(C(NC(=O)C(Cc1ccc(F)cc1)NC(=O)NC(Cc1c[nH]c2ccccc12)C(=O)O)C(=O)NCC1CC(O)C(n2ccc(=O)[nH]c2=O)O1)N(C)C(=O)C(N)Cc1ccc(F)cc1 [Compound 118, 1-[5′-(2S,3S)-N^2-[N-[[(1S)-1-Carboxy-2-indol-3-ylethyl]carbamoyl]-L-4-fluorophenylalanyl]-N^3-L-4-fluorophenylalanyl-N^3-methyl-2,3-diaminobutyramido]-3′,5′-dideoxy-α-L-arabinofuranosyl]uracil] | 256 µg/mL (≈ 284 µM) | >512 µg/mL | >512 µg/mL | 128 µg/mL (≈ 142 µM) | 128 µg/mL (≈ 142 µM) | 256 µg/mL (≈ 284 µM) | 512 µg/mL (≈ 568 µM) | 256 µg/mL (≈ 284 µM) | 256 µg/mL (≈ 284 µM) | 8 µg/mL (≈ 8.87 µM)
CC(C(NC(=O)C(Cc1ccc(F)cc1)NC(=O)NC(Cc1ccc(O)cc1)C(=O)O)C(=O)NCC1CC(O)C(n2ccc(=O)[nH]c2=O)O1)N(C)C(=O)CCCCN [Compound 124, 1-[5′-[(2S,3S)-N^3-(5-Aminopentanoyl)-N^2-[N-[[(1S)-1-carboxy-4-hydroxyphenethyl]carbamoyl]-L-4-fluorophenylalanyl]-N^3-methyl-2,3-diaminobutyramido]-3′,5′-dideoxy-α-L-arabinofuranosyl]uracil] | >512 µg/mL | >512 µg/mL | >512 µg/mL | 128 µg/mL (≈ 157 µM) | 512 µg/mL (≈ 630 µM) | >512 µg/mL | 256 µg/mL (≈ 315 µM) | >512 µg/mL | 128 µg/mL (≈ 157 µM) | 2 µg/mL (≈ 2.46 µM)
CC(N)C(=O)N(C)C(C)C(NC(=O)C(Cc1cscn1)NC(=O)NC(Cc1ccc(O)cc1)C(=O)O)C(=O)NCC1CC(O)C(n2ccc(=O)[nH]c2=O)O1 [Compound 132, 1-[5′-[(2S,3S)-N^3-L-Alanyl-N^2-[N-[[(1S)-1-carboxy-4-hydroxyphenethyl]carbamoyl]-L-thiazolylalanyl]-N^3-methyl-2,3-diaminobutyramido]-3′,5′-dideoxy-α-L-arabinofuranosyl]uracil] | >512 µg/mL | >512 µg/mL | >512 µg/mL | 32 µg/mL (≈ 41.4 µM) | 128 µg/mL (≈ 165 µM) | >512 µg/mL | 256 µg/mL (≈ 331 µM) | >512 µg/mL | 32 µg/mL (≈ 41.4 µM) | 8 µg/mL (≈ 10.3 µM)
C[C@H](N)C(=O)N(C)[C@@H](C)[C@H](NC(=O)[C@H](Cc1ccc(F)c(F)c1)NC(=O)N[C@@H](Cc1ccc(O)cc1)C(=O)O)C(=O)NC[C@H]1C[C@@H](O)[C@H](n2ccc(=O)[nH]c2=O)O1 [Compound 144, 1-[5′-[(2S,3S)-N^3-L-Alanyl-N^2-[N-[[(1S)-1-carboxy-4-hydroxyphenethyl]carbamoyl]-L-(3,4)-difluorophenylalanyl]-N^3-methyl-2,3-diaminobutyramido)-3′,5′-dideoxy-α-L-arabinofuranosyl]uracil] | >512 µg/mL | 512 µg/mL (≈ 638 µM) | >512 µg/mL | 8 µg/mL (≈ 9.97 µM) | 64 µg/mL (≈ 79.7 µM) | >512 µg/mL | 4 µg/mL (≈ 4.98 µM) | 256 µg/mL (≈ 319 µM) | <1 µg/mL | <1 µg/mL
C[C@H](N)C(=O)N(C)[C@@H](C)[C@H](NC(=O)[C@H](Cc1ccccc1F)NC(=O)N[C@@H](Cc1ccc(O)cc1)C(=O)O)C(=O)NC[C@H]1C[C@@H](O)[C@H](n2ccc(=O)[nH]c2=O)O1 [Compound 140, 1-[5′-[(2S,3S)-N^3-L-Alanyl-N^2-[N-[[(1S)-1-carboxy-4-hydroxyphenethyl]carbamoyl]-L-2-fluorophenylalanyl]-N^3-methyl-2,3-diaminobutyramido]-3′,5′-dideoxy-α-L-arabinofuranosyl]uracil] | 512 µg/mL (≈ 652 µM) | 512 µg/mL (≈ 652 µM) | 512 µg/mL (≈ 652 µM) | 4 µg/mL (≈ 5.1 µM) | 64 µg/mL (≈ 81.5 µM) | >512 µg/mL | 64 µg/mL (≈ 81.5 µM) | >512 µg/mL | 8 µg/mL (≈ 10.2 µM) | <1 µg/mL
CC(C)CC(NC(=O)NC(Cc1ccc(O)cc1)C(=O)O)C(=O)NC(C(=O)NCC1CC(O)C(n2ccc(=O)[nH]c2=O)O1)C(C)N(C)C(=O)C(C)N [Compound 161, 1-[5′-[(2S,3S)-N^3-L-Alanyl-N^2-[N-[[(1S)-1-carboxy-4-hydroxyphenethyl)carbamoyl]-L-leucyl]-N^3-methyl-2,3-diaminobutyramido]-3′,5′-dideoxy-α-L-arabinofuranosyl]uracil] | 256 µg/mL (≈ 349 µM) | >512 µg/mL | >512 µg/mL | 8 µg/mL (≈ 10.9 µM) | 16 µg/mL (≈ 21.8 µM) | >512 µg/mL | >512 µg/mL | 512 µg/mL (≈ 699 µM) | 256 µg/mL (≈ 349 µM) | 32 µg/mL (≈ 43.7 µM)
